{"source": "patent US11065253B2", "about": "“Arylquinazolines” (Merck Patent GmbH, priority 2013, dated 2021)", "tested_on": "phospho-serine 2056 DNA-PK in HCT116 cells", "test": "DNA-PK phosphorylation at serine 2056 (cellular), ELISA in bleomycin-treated HCT116 cells", "assay_type": "cell-based", "conditions": "Homo sapiens, read-out: IC50 pDNA-PK", "experimental": "HCT116 cells were cultivated at 37° C. and 10% CO2 in MEM alpha medium with 10% of foetal calf serum and 2 mM glutamine. The cells were detached from the base of the culture vessels with the aid of trypsin/EDTA, centrifuged off in centrifuge tubes, taken up in fresh medium, and the cell density was determined. 100,000 cells were sown in 1 ml of culture medium per cavity of a 24-well cell culture plate and cultivated overnight. Next day, 10 μM bleomycin (DNA intercalator and inductor of DNA double-strand breaks) and test substances in fresh culture medium were added to the cells, and these were cultivated for a further six hours. […] The 96-well ELISA plates were subsequently treated with a detection antibody (Abcam ab79444: total DNA-PK) and a streptavidin-HRP conjugate. The development of the enzymatic reaction was carried out with the aid of a chemiluminescent reagent, the chemiluminescence was measured with the aid of a Mithras LB940. The signals with the phospho-DNA-PK-specific antibody were standardised to the signal with the antibody against the total protein DNA-PKc. […] The DMSO control was used as blank.", "key": {"[1]": {"conditions": "HCT-116, phospho-serine 2056 DNA-PK, bleomycin-treated HCT116 cells, class symbols A-D"}, "[2]": {"conditions": "HCT-116, phospho-serine 2056 DNA-PK, bleomycin-treated HCT116 cells"}, "[3]": {"conditions": "HCT-116, cellular DNA-PK phosphorylation at serine 2056, HCT116 cells"}, "[4]": {"conditions": "HCT-116, 6 h, cellular, HCT116 cells, 10 μM bleomycin, six hours"}}, "note": "Where two headings read alike, the source gives them in different places.", "data": [{"smiles": "COc1ccc(C(O)c2cc(-c3nc(Cl)nc4cc(N5CCOCC5)ccc34)c(F)cc2Cl)nn1", "note": "(centres unmarked) [Example 132, [2-Chloro-5-(2-chloro-7-morpholin-4-yl-quinazolin-4-yl)-4-fluorophenyl]-(6-methoxy-pyridazin-3-yl)-methanol]", "values": [{"measurement": "IC50", "setting": "[1]", "result": "0.5 to 5", "unit": "µM"}]}, {"smiles": "OC(c1cc(-c2ncnc3cc(N4CCOCC4)ccc23)c(F)cc1F)c1nncc2ccsc12", "note": "(centres unmarked) [Example 342, [2,4-Difluoro-5-(7-morpholin-4-yl-quinazolin-4-yl)-phenyl]thieno[2,3-d}-pyridazin-7-yl-methanol]", "values": [{"measurement": "IC50", "setting": "[2]", "result": "< 0.5", "unit": "µM"}]}, {"smiles": "OC(c1cc(-c2ncnc3cc(N4CCOCC4)ccc23)c(F)cc1Cl)c1ncnc2ccoc12", "note": "(centres unmarked) [Example 440, [2-Chloro-4-fluoro-5-(7-morpholin-4-yl-quinazolin-4-yl)-phenyl]furo[3,2-d}-pyrimidin-4-yl-methanol]", "values": [{"measurement": "IC50", "setting": "[3]", "result": "< 0.5", "unit": "µM"}]}, {"smiles": "OCCNc1nccnc1C(O)c1ccc(F)c(-c2ncnc3cc(N4CCOCC4)ccc23)c1", "note": "(centres unmarked) [Example 106, 2-(3-{[4-fluoro-3-(7-morpholin-4-yl-quinazolin-4-yl)-phenyl]hydroxy-methyl}pyrazin-2-yl-amino)ethanol]", "values": [{"measurement": "IC50", "setting": "[1]", "result": "5 to 10", "unit": "µM"}]}, {"smiles": "Nc1cncc(C(O)c2ccc(F)c(-c3ncnc4cc(N5CCOCC5)ccc34)c2)n1", "note": "(centres unmarked) [Example 302, (6-Amino-pyrazin-2-yl)-[4-fluoro-3-(7-morpholin-4-yl-quinazolin-4-yl)-phenyl]methanol]", "values": [{"measurement": "IC50", "setting": "[2]", "result": "5 to 10", "unit": "µM"}]}, {"smiles": "CSc1ccc(C(O)c2cc(-c3ncnc4cc(N5CCOCC5)ccc34)c(F)cc2Cl)nn1", "note": "(centres unmarked) [Example 108, [2-Chloro-4-fluoro-5-(7-morpholin-4-yl-quinazolin-4-yl)-phenyl]-(6-methyl-sulfanylpyridazin-3-yl)methanol]", "values": [{"measurement": "IC50", "setting": "[1]", "result": "< 0.5", "unit": "µM"}]}, {"smiles": "Cc1cc(C(O)c2ccc(F)c(-c3ncnc4cc(N5CCOCC5)ccc34)c2)n(C)c(=O)c1", "note": "(centres unmarked) [Example 340, 6-{[4-Fluoro-3-(7-morpholin-4-yl-quinazolin-4-yl)-phenyl]hydroxy-methyl}-1,4-dimethyl-1H-pyridin-2-one]", "values": [{"measurement": "IC50", "setting": "[2]", "result": "0.5 to 5", "unit": "µM"}]}, {"smiles": "COc1cnc(C(O)c2ccc(F)c(-c3ncnc4cc(N5CCOCC5)ccc34)c2)nc1", "note": "(centres unmarked) [Example 66, [4-Fluoro-3-(7-morpholin-4-yl-quinazolin-4-yl)phenyl]-(5-methoxypyrimidin-2-yl)methanol]", "values": [{"measurement": "IC50", "setting": "[4]", "result": "10 to 30", "unit": "µM"}]}, {"smiles": "OCc1csc(C(O)c2cc(-c3ncnc4cc(N5C6CCC5COC6)ccc34)c(F)cc2Cl)n1", "note": "(centres unmarked) [Example 187, {2-Chloro-4-fluoro-5-[7-(3-oxa-8-aza-bicyclo[3.2.1]oct-8-yl)quinazolin-4-yl]-phenyl}-(4-hydroxy-methylthiazol-2-yl)-methanol]", "values": [{"measurement": "IC50", "setting": "[1]", "result": "10 to 30", "unit": "µM"}]}, {"smiles": "OC(c1cc(-c2ncnc3cc(N4CCOCC4)ccc23)ccc1F)c1ncnc2ccoc12", "note": "(centres unmarked) [Example 374, [2-Fluoro-5-(7-morpholin-4-yl-quinazolin-4-yl)-phenyl]furo[3,2-d}-pyrimidin-4-yl-methanol]", "values": [{"measurement": "IC50", "setting": "[3]", "result": "0.5 to 5", "unit": "µM"}]}, {"smiles": "Cc1nccnc1[C@H](O)c1ccc(F)c(-c2ncnc3cc(N4CCOCC4)cnc23)c1", "note": "[Example 234, (R)-[4-Fluoro-3-(7-morpholin-4-yl-pyrido[3,2-d}-pyrimidin-4-yl)-phenyl]-(3-methyl-pyrazin-2-yl)-methanol]", "values": [{"measurement": "IC50", "setting": "[2]", "result": "< 0.5", "unit": "µM"}]}, {"smiles": "OC(c1ccc(OC2COC2)nn1)c1cc(-c2ncnc3cc(N4CCOCC4)ccc23)c(F)cc1Cl", "note": "(centres unmarked) [Example 100, [2-Chloro-4-fluoro-5-(7-morpholin-4-yl-quinazolin-4-yl)-phenyl]-[6-(oxetan-3-yloxy)pyridazin-3-yl]-methanol]", "values": [{"measurement": "IC50", "setting": "[1]", "result": "< 0.5", "unit": "µM"}]}, {"smiles": "Cn1ncc2c(C(O)c3cc(-c4ncnc5cc(N6CCOCC6)ccc45)c(F)cc3F)ncnc21", "note": "(centres unmarked) [Example 403, [2,4-Difluoro-5-(7-morpholin-4-yl-quinazolin-4-yl)-phenyl]-(1-methyl-1H-pyrazolo[3,4-d}-pyrimidin-4-yl)-methanol]", "values": [{"measurement": "IC50", "setting": "[3]", "result": "0.5 to 5", "unit": "µM"}]}, {"smiles": "COC(=O)c1ccc(C(O)c2cc(-c3ncnc4cc(N5CCOCC5)ccc34)c(F)cc2Cl)nn1", "note": "(centres unmarked) [Example 58, 6-{[2-Chloro-4-fluoro-5-(7-morpholin-4-yl-quinazolin-4-yl)phenyl]-hydroxymethyl}-pyridazine-3-carboxylic acid methyl ester]", "values": [{"measurement": "IC50", "setting": "[4]", "result": "5 to 10", "unit": "µM"}]}, {"smiles": "OC(c1ccc(F)c(-c2ncnc3cc(N4CCOCC4)ccc23)c1)c1c(F)cncc1F", "note": "(centres unmarked) [Example 1, (3,5-Difluoropyridin-4-yl)-[4-fluoro-3-(7-morpholin-4-ylquinazolin-4-yl)phenyl]methanol]", "values": [{"measurement": "IC50", "setting": "[4]", "result": "0.5 to 5", "unit": "µM"}]}, {"smiles": "OC(c1ccc(F)c(-c2ncnc3cc(C4=CCOCC4)ccc23)c1)c1nccs1", "note": "(centres unmarked) [Example 139, {3-[7-(3,6-Dihydro-2H-pyran-4-yl)-quinazolin-4-yl]-4-fluoro-phenyl}-thiazol-2-ylmethanol]", "values": [{"measurement": "IC50", "setting": "[1]", "result": "10 to 30", "unit": "µM"}]}, {"smiles": "Cc1cc(C(O)c2cc(-c3ncnc4cc(N5CCOCC5)ccc34)c(F)cc2Cl)n(C)c(=O)c1", "note": "(centres unmarked) [Example 339, 6-{[2-Chloro-4-fluoro-5-(7-morpholin-4-yl-quinazolin-4-yl)-phenyl]hydroxy-methyl}-1,4-dimethyl-1H-pyridin-2-one]", "values": [{"measurement": "IC50", "setting": "[2]", "result": "0.5 to 5", "unit": "µM"}]}, {"smiles": "Cc1nccnc1C(O)c1cc(-c2ncnc3cc(N4CCOCC4)ccc23)ccc1Cl", "note": "(centres unmarked) [Example 426, [2-Chloro-5-(7-morpholin-4-yl-quinazolin-4-yl)-phenyl]-(3-methyl-pyrazin-2-yl)-methanol (Ena 2)]", "values": [{"measurement": "IC50", "setting": "[3]", "result": "0.5 to 5", "unit": "µM"}]}, {"smiles": "OC(c1ccccn1)c1cc(-c2ncnc3cc(N4CCOCC4)ccc23)c(F)cc1F", "note": "(centres unmarked) [Example 218, [2,4-Difluoro-5-(7-morpholin-4-yl-quinazolin-4-yl)-phenyl]pyridin-2-yl-methanol]", "values": [{"measurement": "IC50", "setting": "[1]", "result": "< 0.5", "unit": "µM"}]}, {"smiles": "Cn1ncc2c(C(O)c3cc(-c4ncnc5cc(N6CCOCC6)ccc45)c(F)cc3Cl)ncnc21", "note": "(centres unmarked) [Example 402, [2-Chloro-4-fluoro-5-(7-morpholin-4-yl-quinazolin-4-yl)-phenyl]-(1-methyl-1H-pyrazolo[3,4-d}-pyrimidin-4-yl)-methanol]", "values": [{"measurement": "IC50", "setting": "[3]", "result": "0.5 to 5", "unit": "µM"}]}, {"smiles": "COc1nccnc1C(C(N)=O)c1cc(-c2ncnc3cc(N4CCOCC4)cc(F)c23)c(F)cc1Cl", "note": "(centres unmarked) [Example 261, 2-[2-Chloro-4-fluoro-5-(5-fluoro-7-morpholin-4-yl-quinazolin-4-yl)-phenyl]-2-(3-methoxy-pyrazin-2-yl)acetamide]", "values": [{"measurement": "IC50", "setting": "[2]", "result": "0.5 to 5", "unit": "µM"}]}, {"smiles": "Cn1cnc2c(C(O)c3cc(-c4ncnc5cc(N6CCOCC6)ccc45)ccc3F)ncnc21", "note": "(centres unmarked) [Example 370, [2-Fluoro-5-(7-morpholin-4-yl-quinazolin-4-yl)-phenyl]-(9-methyl-9H-purin-6-yl)-methanol]", "values": [{"measurement": "IC50", "setting": "[3]", "result": "0.5 to 5", "unit": "µM"}]}, {"smiles": "O[C@H](c1ccc(F)c(-c2ncnc3cc(N4CCOCC4)ccc23)c1)c1nccnc1Cl", "note": "[Example 27, (R)-(3-Chloro-pyrazin-2-yl)-[4-fluoro-3-(7-morpholin-4-yl-quinazolin-4-yl)phenyl]-methanol]", "values": [{"measurement": "IC50", "setting": "[4]", "result": "< 0.5", "unit": "µM"}]}, {"smiles": "Cc1nccnc1[C@@H](O)c1ccc(F)c(-c2ncnc3cc(N4CCOCC4)cnc23)c1", "note": "[Example 233, (S)-[4-Fluoro-3-(7-morpholin-4-yl-pyrido[3,2-d}-pyrimidin-4-yl)-phenyl]-(3-methyl-pyrazin-2-yl)-methanol]", "values": [{"measurement": "IC50", "setting": "[2]", "result": "10 to 30", "unit": "µM"}]}, {"smiles": "COCCOc1ccc(C(O)c2cc(-c3ncnc4cc(N5CCOCC5)ccc34)c(F)cc2Cl)nn1", "note": "(centres unmarked) [Example 112, [2-Chloro-4-fluoro-5-(7-morpholin-4-yl-quinazolin-4-yl)-phenyl]-[6-(2-methoxyethoxy)-pyridazin-3-yl]-methanol]", "values": [{"measurement": "IC50", "setting": "[1]", "result": "0.5 to 5", "unit": "µM"}]}, {"smiles": "OC(c1cc(-c2ncnc3cc(N4CCOCC4)ccc23)ccc1F)c1nccn2ccnc12", "note": "(centres unmarked) [Example 372, [2-Fluoro-5-(7-morpholin-4-yl-quinazolin-4-yl)-phenyl]imidazo-[1,2-a]pyrazin-8-yl-methanol]", "values": [{"measurement": "IC50", "setting": "[3]", "result": "0.5 to 5", "unit": "µM"}]}]}
